# Experimental data reported in patent US11608341B2, “Substituted tetrahydropyrazolo[3,4-d]pyrimidines and tetrahydropyrazolo[4,3-d]pyrimidines as C5A receptor modulators” (Idorsia Pharmaceuticals Ltd., priority 2018, dated 2023).
# pIC50: −log10 of the molar value.
# Biological target: T1, C5AR1 (Homo sapiens, UniProt P21730)
# T1 construct: host or cells: CHO-K1
# T1 sequence (P21730 1-350): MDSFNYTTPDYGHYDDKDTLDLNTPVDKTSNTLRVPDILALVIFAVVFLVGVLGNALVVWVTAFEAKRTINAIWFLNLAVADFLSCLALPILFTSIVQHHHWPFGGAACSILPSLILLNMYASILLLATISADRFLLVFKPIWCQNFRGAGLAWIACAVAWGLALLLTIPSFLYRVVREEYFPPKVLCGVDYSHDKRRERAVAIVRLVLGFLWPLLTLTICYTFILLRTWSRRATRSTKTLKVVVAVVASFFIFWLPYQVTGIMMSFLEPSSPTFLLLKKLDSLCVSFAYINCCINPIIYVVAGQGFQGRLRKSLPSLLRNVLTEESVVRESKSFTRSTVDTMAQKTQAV
# Experiment: In vitro assay: antagonism of C5a-induced beta-arrestin recruitment (PathHunter) in CHO-K1 C5AR1 beta-arrestin cell line
# Assay type: cell-based
# Conditions: antagonistic activity, 1-10 nM C5a agonist, geometric mean where several measurements, read-out: C5aR IC50
# Method: 5 μl Antagonist at 6-fold end concentration or DMSO control is added to assay medium and subsequently 5 μl 1-10 nM C5a agonist at 6 fold end concentration. Cells are centrifuged for 1 min at 1000 rpm and incubated for 1.5 hour in at 37° C. Plates are equilibrated at room temperature for several minutes before adding 12 μl/well Detection Reagent (PathHunter Detection Kit, DiscoverX, Cat #93-0001). Plates are centrifuged for 1 min at 1000 rpm and incubated for 45 minutes at RT before being measured on a Fluostar Optima, BMG Labtech. IC50 values are calculated from a serial dilution range of antagonist using inhouse software and given in nmol/l.
# The calculated IC50 values may fluctuate depending on the daily cellular assay performance. Fluctuations of this kind are known to those skilled in the art. Average IC50 values from several measurements are given as geometric mean values.
row,pIC50,Compound
1,7.96,"Cc1cccc(F)c1N1CCC(N2C(=O)N(Cc3ccccc3C(F)(F)F)c3nn(C4CC4)cc3C2C)CC1 (single isomer, unassigned) [Example 309]"
2,7.52,"Cc1cccc(F)c1N1CCC(N2C(=O)N(Cc3ccccc3C(F)(F)F)c3nn(C4CC4)cc3C2C)CC1 (single isomer, unassigned) [Example 310]"
3,7.89,"CC1c2cn(C3CC3)nc2N(Cc2ccccc2C(F)(F)F)C(=O)N1C1CCN(c2c(F)cccc2C(F)F)CC1 (single isomer, unassigned) [Example 311]"
4,7.14,"CC1c2cn(C3CC3)nc2N(Cc2ccccc2C(F)(F)F)C(=O)N1C1CCN(c2c(F)cccc2C(F)F)CC1 (single isomer, unassigned) [Example 312]"
5,8.10,"CC1c2cn(C)nc2N(Cc2ccccc2C(F)(F)F)C(=O)N1C1CCN(c2c(F)cccc2C(F)F)CC1 (single isomer, unassigned) [Example 314]"
6,6.44,"CC1c2cn(C)nc2N(Cc2ccccc2C(F)(F)F)C(=O)N1C1CCN(c2c(F)cccc2C(F)F)CC1 (single isomer, unassigned) [Example 315]"
7,8.05,"Cc1cccc(F)c1N1CCC(N2C(=O)N(Cc3ccccc3C(F)(F)F)c3n[nH]cc3C2C)CC1 (single isomer, unassigned) [Example 316]"
8,7.96,"Cc1cccc(F)c1N1CCC(N2C(=O)N(Cc3ccccc3C3CC3)c3nn(C)cc3C2C)CC1 (single isomer, unassigned) [Example 317]"
9,6.88,"Cc1cccc(F)c1N1CCC(N2C(=O)N(Cc3ccccc3C3CC3)c3nn(C)cc3C2C)CC1 (single isomer, unassigned) [Example 318]"
10,8.70,"CC1c2cn(C)nc2N(Cc2ccccc2C(F)(F)F)C(=O)N1C1CCN(c2c(F)cccc2Cl)CC1 (single isomer, unassigned) [Example 319]"
11,6.49,"CC1c2cn(C)nc2N(Cc2ccccc2C(F)(F)F)C(=O)N1C1CCN(c2c(F)cccc2Cl)CC1 (single isomer, unassigned) [Example 320]"
12,6.71,"CC1c2cn(C)nc2N(Cc2ccccc2C2CC2)C(=O)N1C1CCN(c2c(F)cccc2Cl)CC1 (single isomer, unassigned) [Example 321]"
13,8.52,"CC1c2cn(C)nc2N(Cc2ccccc2C2CC2)C(=O)N1C1CCN(c2c(F)cccc2Cl)CC1 (single isomer, unassigned) [Example 322]"
14,7.85,"CC1c2cn(C)nc2N(Cc2ccccc2C2CC2)C(=O)N1C1CCN(c2c(F)cccc2C2CC2)CC1 (single isomer, unassigned) [Example 325]"
15,6.45,"CC1c2cn(C)nc2N(Cc2ccccc2C2CC2)C(=O)N1C1CCN(c2c(F)cccc2C2CC2)CC1 (single isomer, unassigned) [Example 326]"
16,6.28,"CC1c2nn(C3CC3)cc2N(Cc2ccccc2C(F)(F)F)C(=O)N1C1CCN(c2c(F)cccc2Cl)CC1 (single isomer, unassigned) [Example 327]"
17,8.00,"CC1c2nn(C3CC3)cc2N(Cc2ccccc2C(F)(F)F)C(=O)N1C1CCN(c2c(F)cccc2Cl)CC1 (single isomer, unassigned) [Example 328]"
18,7.74,"CC1c2nn(C3CC3)cc2N(Cc2ccccc2C(F)(F)F)C(=O)N1C1CCN(c2c(F)cccc2C(F)F)CC1 (single isomer, unassigned) [Example 329]"
19,5.85,"CC1c2nn(C3CC3)cc2N(Cc2ccccc2C(F)(F)F)C(=O)N1C1CCN(c2c(F)cccc2C(F)F)CC1 (single isomer, unassigned) [Example 330]"
20,8.22,"COc1nccc(C)c1N1CCC(N2C(=O)N(Cc3ccccc3C(F)(F)F)c3nn(C)cc3C2C)CC1 (single isomer, unassigned) [Example 331]"
21,6.74,"COc1nccc(C)c1N1CCC(N2C(=O)N(Cc3ccccc3C(F)(F)F)c3nn(C)cc3C2C)CC1 (single isomer, unassigned) [Example 332]"
22,6.68,"CC1c2cn(C)nc2N(Cc2ccccc2C(F)(F)F)C(=O)N1C1CCN(c2c(F)cccc2C2CC2)CC1 (single isomer, unassigned) [Example 334]"
23,7.92,"CC1c2cn(C3CC3)nc2N(Cc2ccccc2C(F)(F)F)C(=O)N1C1CCN(c2c(F)cccc2Cl)CC1 (single isomer, unassigned) [Example 335]"
24,7.05,"CC1c2cn(C3CC3)nc2N(Cc2ccccc2C(F)(F)F)C(=O)N1C1CCN(c2c(F)cccc2Cl)CC1 (single isomer, unassigned) [Example 336]"
25,6.96,"CC1c2cn(C3CC3)nc2N(Cc2ccccc2C2CC2)C(=O)N1C1CCN(c2c(F)cccc2Cl)CC1 (single isomer, unassigned) [Example 338]"

row,pIC50,Compound
1,7.92,"Cc1cccc(F)c1N1CCC(N2C(=O)N(Cc3ccccc3C3CC3)c3nn(C4CC4)cc3C2C)CC1 (single isomer, unassigned) [Example 339]"
2,7.17,"Cc1cccc(F)c1N1CCC(N2C(=O)N(Cc3ccccc3C3CC3)c3nn(C4CC4)cc3C2C)CC1 (single isomer, unassigned) [Example 340]"
3,8.10,"COc1nccc(C)c1N1CCC(N2C(=O)N(Cc3ccccc3C(F)(F)F)c3nn(C4CC4)cc3C2C)CC1 (single isomer, unassigned) [Example 344]"
4,7.46,"COc1nccc(C)c1N1CCC(N2C(=O)N(Cc3ccccc3C(F)(F)F)c3nn(C4CC4)cc3C2C)CC1 (single isomer, unassigned) [Example 345]"
5,8.15,"COc1nccc(C(F)F)c1N1CCC(N2C(=O)N(Cc3ccccc3C(F)(F)F)c3nn(C)cc3C2C)CC1 (single isomer, unassigned) [Example 346]"
6,6.70,"COc1nccc(C(F)F)c1N1CCC(N2C(=O)N(Cc3ccccc3C(F)(F)F)c3nn(C)cc3C2C)CC1 (single isomer, unassigned) [Example 347]"
7,7.96,"CC1c2c[nH]nc2N(Cc2ccccc2C(F)(F)F)C(=O)N1C1CCN(c2c(F)cccc2C(F)F)CC1 (single isomer, unassigned) [Example 348]"
8,6.04,"CC1c2c[nH]nc2N(Cc2ccccc2C(F)(F)F)C(=O)N1C1CCN(c2c(F)cccc2C(F)F)CC1 (single isomer, unassigned) [Example 349]"
9,8.40,"CC1c2c[nH]nc2N(Cc2ccccc2C(F)(F)F)C(=O)N1C1CCN(c2c(F)cccc2Cl)CC1 (single isomer, unassigned) [Example 350]"
10,6.11,"CC1c2c[nH]nc2N(Cc2ccccc2C(F)(F)F)C(=O)N1C1CCN(c2c(F)cccc2Cl)CC1 (single isomer, unassigned) [Example 351]"
11,7.96,"COc1nccc(C(F)F)c1N1CCC(N2C(=O)N(Cc3ccccc3C(F)(F)F)c3n[nH]cc3C2C)CC1 (single isomer, unassigned) [Example 352]"
12,6.00,"COc1nccc(C(F)F)c1N1CCC(N2C(=O)N(Cc3ccccc3C(F)(F)F)c3n[nH]cc3C2C)CC1 (single isomer, unassigned) [Example 353]"
13,8.30,"Cc1cccc(F)c1N1CCC(N2C(=O)N(Cc3ncccc3C(F)(F)F)c3nn(C)cc3C2C)CC1 (single isomer, unassigned) [Example 354]"
14,6.53,"Cc1cccc(F)c1N1CCC(N2C(=O)N(Cc3ncccc3C(F)(F)F)c3nn(C)cc3C2C)CC1 (single isomer, unassigned) [Example 355]"
15,8.30,"COc1nccc(C)c1N1CCC(N2C(=O)N(Cc3ncccc3C(F)(F)F)c3nn(C)cc3C2C)CC1 (single isomer, unassigned) [Example 356]"
16,6.24,"COc1nccc(C)c1N1CCC(N2C(=O)N(Cc3ncccc3C(F)(F)F)c3nn(C)cc3C2C)CC1 (single isomer, unassigned) [Example 357]"
17,7.92,"COc1nccc(C(F)F)c1N1CCC(N2C(=O)N(Cc3ccccc3C(F)(F)F)c3nn(C4CC4)cc3C2C)CC1 (single isomer, unassigned) [Example 358]"
18,6.73,"COc1nccc(C(F)F)c1N1CCC(N2C(=O)N(Cc3ccccc3C(F)(F)F)c3nn(C4CC4)cc3C2C)CC1 (single isomer, unassigned) [Example 359]"
19,8.52,"CC1c2cn(C3CC3)nc2N(Cc2ccccc2C(F)(F)F)C(=O)N1C1CCN(c2c(F)cccc2Br)CC1 (single isomer, unassigned) [Example 360]"
20,7.89,"CC1c2cn(C3CC3)nc2N(Cc2ccccc2C(F)(F)F)C(=O)N1C1CCN(c2c(F)cccc2Br)CC1 (single isomer, unassigned) [Example 361]"
21,8.05,"COc1nccc(C(F)(F)F)c1N1CCC(N2C(=O)N(Cc3ccccc3C(F)(F)F)c3nn(C)cc3C2C)CC1 (single isomer, unassigned) [Example 362]"
22,7.01,"COc1nccc(C(F)(F)F)c1N1CCC(N2C(=O)N(Cc3ccccc3C(F)(F)F)c3nn(C)cc3C2C)CC1 (single isomer, unassigned) [Example 363]"
23,6.54,"COc1nccc(C(F)F)c1N1CCC(N2C(=O)N(Cc3ccccc3C3CC3)c3nn(C)cc3C2C)CC1 (single isomer, unassigned) [Example 367]"
24,6.59,"COc1nccc(C)c1N1CCC(N2C(=O)N(Cc3ccccc3C3CC3)c3nn(C)cc3C2C)CC1 (single isomer, unassigned) [Example 369]"
